# According to US20220330549A1, “USE OF N-BENZYLBENZAMIDE-BASED COMPOUND AS HERBICIDE” (Northwest A&F University, priority 2020, published 2022):
# Legend:
# Format in all cases: in vivo
# nutgrass flatsedge = assay: Field test for weed control in a corn field; details: 150 g a.i./ha, after treatment
# Outline: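 A corn field efficacy trial following GB/T 17980.42-2000 assessed post-emergence control of nutgrass flatsedge. Test compounds were formulated as 10% emulsifiable concentrates, diluted in water, and sprayed at 150 g(a.i.)/ha when the corn had 2 to 5 leaves. Each treatment had 4 replicates on 20 m^2 plots. Herbicidal activity was graded on a 1-9 scale by damage symptoms and severity.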
# Acalypha australis = assay: Field test for weed control in a corn field; details: 150 g a.i./ha, after treatment
# Outline: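 Post-emergence field trial in a corn field following GB/T 17980.42-2000. Test compounds were formulated as 10% emulsifiable concentrates, diluted in water, and sprayed at 150 g(a.i.)/ha when corn had 2 to 5 leaves, with 4 replicates on 20 m^2 plots. Mesotrione 25% oil dispersion served as the control agent. Weed control was scored on a 1-9 scale.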
# Portulaca oleracea = assay: Field test for weed control in a corn field; details: 150 g a.i./ha, after treatment
# Outline: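 Field efficacy trial in corn following GB/T 17980.42-2000. Test compounds were prepared as 10% emulsifiable concentrates, diluted in water, and sprayed at 150 g(a.i.)/ha when corn had 2 to 5 leaves after sowing. Plots were 20 m^2 with 4 replicates per treatment. Herbicidal activity was scored on a 1-9 scale from weed damage symptoms and severity.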
# Amaranthus retroflexus [1] = assay: Field test for weed control in a corn field; details: 150 g a.i./ha, 30 days after treatment
# Outline: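 Field efficacy trial in a corn field following GB/T 17980.42-2000. Test compounds were formulated as 10% emulsifiable concentrates, diluted in water and sprayed post-emergence when corn had 2 to 5 leaves. Each treatment covered 20 m^2 with 4 replicates. A 25% mesotrione oil dispersion served as control. Damage to Amaranthus retroflexus was rated on a 1-9 scale against untreated blank plots.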
# goosegrass = assay: Field test for weed control in a corn field; details: 150 g a.i./ha, after treatment
# Outline: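 Weed control efficacy against goosegrass was tested in a corn field following GB/T 17980.42-2000. Compounds formulated as 10% emulsifiable concentrates were diluted in water and sprayed post-emergence at 150 g(a.i.)/ha when corn had 2 to 5 leaves, with 4 replicates of 20 m^2 plots. Herbicidal activity was rated on a 1-9 scale by damage symptoms and severity.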
# Convolvulus arvensis = assay: Field test for weed control in a corn field; details: 150 g a.i./ha, after treatment
# Outline: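 Field trial of weed control against Convolvulus arvensis in corn, run following GB/T 17980.42-2000. Test agents were formulated as 10% emulsifiable concentrates and sprayed in water at 150 g(a.i.)/ha when corn plants had 2 to 5 leaves. Each treatment was replicated 4 times on 20 m^2 plots, and 25% mesotrione oil dispersion served as the control agent.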
# Chenopodium album = assay: Field test for weed control in a corn field; details: 150 g a.i./ha, after treatment
# Outline: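 A corn-field efficacy trial following GB/T 17980.42-2000 tested post-emergence control of Chenopodium album. Test compounds formulated as 10% emulsifiable concentrates were diluted in water and sprayed at 150 g(a.i.)/ha when the corn had 2 leaves to 5 leaves, on 20 m^2 plots with 4 replicates. Herbicidal activity was rated on a 1-9 scale by damage symptoms and severity.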
# Barnyard grass [2] = assay: Field test for weed control in a corn field; details: 150 g a.i./ha, 30 days after treatment
# Outline: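 Corn-field efficacy trial following GB/T 17980.42-2000. Test compounds were formulated as 10% emulsifiable concentrates, diluted in water and sprayed post-emergence at 150 g(a.i.)/ha when corn had 2 to 5 leaves. Each treatment was replicated 4 times on 20 m^2 plots. Barnyard grass control was rated on a 1-9 damage scale.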
# Digitaria sanguinalis [3] = assay: Field test for weed control in a corn field; details: 150 g a.i./ha, after treatment
# Outline: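 Field trial in a corn field following GB/T 17980.42-2000. Test compounds were formulated as 10% emulsifiable concentrates, diluted in water and sprayed post-emergence at 150 g(a.i.)/ha when corn had 2 to 5 leaves, with 4 replicates on 20 m^2 plots. Control of Digitaria sanguinalis was scored on a 1-9 scale based on weed damage relative to the untreated blank area.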
# green bristlegrass [4] = assay: Field test for weed control in a corn field; details: 150 g a.i./ha, after treatment
# Outline: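 Post-emergence weed control was tested in a corn field following GB/T 17980.42-2000. When the corn had 2 leaves to 5 leaves after sowing, 10% emulsifiable concentrates diluted in water were sprayed at 150 g(a.i.)/ha on 20 m^2 plots, four replicates per treatment. Effects on green bristlegrass were scored on a 1-9 damage scale relative to the blank control area.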
# Solanum nigrum = assay: Field test for weed control in a corn field; details: 150 g a.i./ha, 30 days after treatment
# Outline: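 Post-emergence weed control was tested in a corn field following GB/T 17980.42-2000. Compounds were made into 10% emulsifiable concentrates, diluted in water and sprayed at 150 g(a.i.)/ha when corn had 2 to 5 leaves after sowing, in 20 m^2 plots with 4 replicates. Effects on Solanum nigrum were graded on a 1-9 scale relative to the blank control area.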
# Humulus scandens [5] = assay: Herbicidal activity test for indoor pre-emergence soil treatment; details: 150 g a.i./ha, visual inspection 21 days after treatment
# Outline: (§1)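 Compounds were formulated as 10% emulsifiable concentrates and sprayed onto the soil 24 h after sowing, at 150 g(a.i.)/ha. Soil was sandy loam (≤2% organic matter), with seeds under 0.5–2.0 cm cover, per NY/T 1155.3-2006. Visual 1–9 ratings relative to blank control were made after 21 days.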
# Humulus scandens [6] = assay: Herbicidal activity test for indoor post-emergence spraying on stems and leaves; parameters: key: grade level by weed remaining vs blank control, e.g. 5 = 10.1-15%; details: 150 g a.i./ha, visual inspection 21 days after treatment
# Outline: (§2)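 Visual inspection at 21 days after treatment gave a level rating, each level defined as a percentage band of the weed remaining in the blank control area. Plants were sprayed on stems and leaves after emergence, following NY/T 1155.4-2006.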
# Amaranthus retroflexus [7] = assay: as above; parameters: key: grade level by weed remaining vs blank control, e.g. 5 = 10.1-15%; details: 150 g a.i./ha, visual inspection 21 days after treatment
# Outline: as §2
# Barnyard grass [8] = assay: as above; parameters: key: grade level by weed remaining vs blank control, e.g. 5 = 10.1-15%; details: 150 g a.i./ha, visual inspection 21 days after treatment
# Outline: as §2
# Digitaria sanguinalis [9] = assay: as above; parameters: key: grade level by weed remaining vs blank control, e.g. 5 = 10.1-15%; details: 150 g a.i./ha, visual inspection 21 days after treatment
# Outline: as §2
# green bristlegrass [10] = assay: as above; parameters: key: grade level by weed remaining vs blank control, e.g. 5 = 10.1-15%; details: 150 g a.i./ha, visual inspection 21 days after treatment
# Outline: as §2
# Piemarker [11] = assay: as above; parameters: key: grade level by weed remaining vs blank control, e.g. 5 = 10.1-15%; details: 150 g a.i./ha, visual inspection 21 days after treatment
# Outline: as §2
# Amaranthus retroflexus [12] = assay: Herbicidal activity test for indoor pre-emergence soil treatment; parameters: key: 1-9 levels; higher = more weed remaining vs blank control; details: 150 g a.i./ha, visual inspection 21 days after treatment
# Outline: as §1
# Digitaria sanguinalis [13] = assay: as above; parameters: key: 1-9 levels; higher = more weed remaining vs blank control; details: 150 g a.i./ha, visual inspection 21 days after treatment
# Outline: as §1
# Barnyard grass [14] = assay: as above; parameters: key: level 1-9; higher = more weed remaining vs blank control; details: 150 g a.i./ha, visual inspection 21 days after treatment
# Outline: as §1
# green bristlegrass [15] = assay: as above; parameters: key: level 1-9; higher = more weed remaining vs blank control; details: 150 g a.i./ha, visual inspection 21 days after treatment
# Outline: as §1
# Piemarker [16] = assay: as above; parameters: key: level 1-9; higher = more weed remaining vs blank control; details: 150 g a.i./ha, visual inspection 21 days after treatment
# Outline: as §1
# Broadleaf weed = assay: Post-emergence herbicidal activity test in a paddy field; parameters: key: level scale; higher level = more weed left vs blank control; details: 150 g a.i./ha (penoxsulam control 250 g(a.i.)/h)
# Outline: (§3)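 Efficacy was visually estimated 15 and 30 days after spraying, grading weed coverage relative to an untreated neighbouring plot (level 2 = 0 to 2.5%, level 9 = 67.6 to 100%). Treatments were 150 g(a.i.)/ha from 10% emulsifiable concentrates applied at the 4-5 leaf rice stage, four repeats of 50 m^2 each.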
# Gramineae = assay: as above; parameters: key: level scale; higher level = more weed left vs blank control; details: 150 g a.i./ha (penoxsulam control 250 g(a.i.)/h)
# Outline: as §3
# Cyperaceae = assay: as above; parameters: key: level scale; higher level = more weed left vs blank control; details: 150 g a.i./ha (penoxsulam control 250 g(a.i.)/h)
# Outline: as §3
Compound,"Post-emergence weed control effect, Nutgrass flatsedge (nutgrass flatsedge)","Post-emergence weed control effect, Acalypha australis (Acalypha australis)","Post-emergence weed control effect, Portulaca oleracea (Portulaca oleracea)","Post-emergence weed control effect, Amaranthus retroflexus (Amaranthus retroflexus [1])","Post-emergence weed control effect, Goose grass (goosegrass)","Post-emergence weed control effect, Convolvulus arvensis (Convolvulus arvensis)","Post-emergence weed control effect, Chenopodium album (Chenopodium album)","Post-emergence weed control effect, Barnyard grass (Barnyard grass [2])","Post-emergence weed control effect, Digitaria sanguinalis (Digitaria sanguinalis [3])","Post-emergence weed control effect, Green bristlegrass (green bristlegrass [4])","Post-emergence weed control effect, Solanum nigrum (Solanum nigrum)",Herbicidal Activity Humulus scandens (Humulus scandens [5]),Herbicidal Activity Humulus scandens (Humulus scandens [6]),Herbicidal Activity Amaranthus retroflexus (Amaranthus retroflexus [7]),Herbicidal Activity Barnyard grass (Barnyard grass [8]),Herbicidal Activity Digitaria sanguinalis (Digitaria sanguinalis [9]),Herbicidal Activity Green bristlegrass (green bristlegrass [10]),Herbicidal Activity Piemarker (Piemarker [11]),Herbicidal Activity Amaranthus retroflexus (Amaranthus retroflexus [12]),Herbicidal Activity Digitaria sanguinalis (Digitaria sanguinalis [13]),other results
"COc1ccccc1C(=O)NCc1cc(F)cc(Cl)c1 [Compound A07, N-(3-chloro-5-fluorobenzyl)-2-methoxybenzamide]",2 (equivalent to 0 to 2.5% of the weed in the blank control area),2 (equivalent to 0 to 2.5% of the weed in the blank control area),1,1,2 (equivalent to 0 to 2.5% of the weed in the blank control area),1,1,2 (equivalent to 0 to 2.5% of the weed in the blank control area),2 (equivalent to 0 to 2.5% of the weed in the blank control area),2 (equivalent to 0 to 2.5% of the weed in the blank control area),2 (equivalent to 0 to 2.5% of the weed in the blank control area),3 (equivalent to 2.6 to 5% of the weed in the blank control area),1,1,1,1,2 (equivalent to 0 to 2.5% of the weed in the blank control area),1,1,1,Herbicidal Activity Barnyard grass (Barnyard grass [14]): 1; Herbicidal Activity Green bristlegrass (green bristlegrass [15]): 2 (equivalent to 0 to 2.5% of the weed in the blank control area); Herbicidal Activity Piemarker (Piemarker [16]): 1; Herbicidal activity 15 days after treatment Broadleaf weed (Broadleaf weed): 2 (equivalent to 0 to 2.5% of the weed in the blank control area); Herbicidal activity 30 days after treatment Broadleaf weed (Broadleaf weed): 1; Herbicidal activity 15 days after treatment Gramineae (Gramineae): 2 (equivalent to 0 to 2.5% of the weed in the blank control area); Herbicidal activity 30 days after treatment Gramineae (Gramineae): 2 (equivalent to 0 to 2.5% of the weed in the blank control area); Herbicidal activity 15 days after treatment Cyperaceae (Cyperaceae): 1; Herbicidal activity 30 days after treatment Cyperaceae (Cyperaceae): 2 (equivalent to 0 to 2.5% of the weed in the blank control area)
COc1cccc(CNC(=O)c2cccnc2OC)c1 [Compound A87],2 (equivalent to 0 to 2.5% of the weed in the blank control area),2 (equivalent to 0 to 2.5% of the weed in the blank control area),1,1,2 (equivalent to 0 to 2.5% of the weed in the blank control area),1,1,1,2 (equivalent to 0 to 2.5% of the weed in the blank control area),1,2 (equivalent to 0 to 2.5% of the weed in the blank control area),3 (equivalent to 2.6 to 5% of the weed in the blank control area),1,1,2 (equivalent to 0 to 2.5% of the weed in the blank control area),1,1,1,2 (equivalent to 0 to 2.5% of the weed in the blank control area),2 (equivalent to 0 to 2.5% of the weed in the blank control area),Herbicidal Activity Barnyard grass (Barnyard grass [14]): 2 (equivalent to 0 to 2.5% of the weed in the blank control area); Herbicidal Activity Green bristlegrass (green bristlegrass [15]): 1; Herbicidal Activity Piemarker (Piemarker [16]): 2 (equivalent to 0 to 2.5% of the weed in the blank control area); Herbicidal activity 15 days after treatment Broadleaf weed (Broadleaf weed): 1; Herbicidal activity 30 days after treatment Broadleaf weed (Broadleaf weed): 1; Herbicidal activity 15 days after treatment Gramineae (Gramineae): 2 (equivalent to 0 to 2.5% of the weed in the blank control area); Herbicidal activity 30 days after treatment Gramineae (Gramineae): 1; Herbicidal activity 15 days after treatment Cyperaceae (Cyperaceae): 1; Herbicidal activity 30 days after treatment Cyperaceae (Cyperaceae): 1
